Patent US20240334934A1, “FUNGICIDE MIXTURE” (priority 2021, published 2024)
Read-outs that look alike come from different tables or passages of the source.

Legend:
[1] = test system: Fusarium virguliforme isolate 2; assay: Effect of Tween 20 on efficacy of purified CtmC, EC50; format: cell-based
From the text: (§1) This is contrary to our results. In order to eliminate the possibility that the fungicidal effect that we observe was down to the presence of Tween 20 we carried out some experiments like those in Example 3 but with various levels of Tween 20, including none.
(§2) The experiment at outlined in Example 3 was repeated to evaluate the EC50 values for CtmC control on Fusarium virguliforme in presence of 4 different rates of Tween20: 0% (absence of Tween 20), 0.0025%, 0.0050% […] and 0.0100%. The plate layout was identical to Example 7, except that the plates were multiplied 4 times to accommodate the different Tween 20 concentrations in the assay plate. All other experimental conditions were kept identical. Fusarium isolates were tested at 25′000 sp/ml.

[2] = test system: Fusarium virguliforme isolate 1; assay: as above; format: cell-based
From the text: as §1, §2

Botrytis cinerea = assay: Efficacy of purified CtmC in-vitro, microtiter plate growth inhibition; format: cell-based; conditions: rate 10 ppm; 72 hrs at 24° C.
Protocol: (§3) CtmC was dissolved in DMSO (Dimethylsulfoxid) to a final concentration of 1000 ppm to create a stock solution. A second dilutions of 1:10 was made in water+0.025% Tween 20. From this second dilution 10 μl are dispensed into a 96-well plate. To each well, 90 μl of medium with fungal spores are added and mixed, resulting in final CtmC concentrations of 10 ppm. All wells containing CtmC also contain DMSO (1%) and Tween 20 (0.0025%).
Botrytis cinerea (gray mould): Conidia of the fungus from cryogenic storage were directly mixed into nutrient broth (PDB potato dextrose broth). After placing a solution of the test compounds into a microtiter plate (96-well format) the nutrient broth containing the fungal spores was added.

[3] = test system: Rhynchosporium secalis K5917; assay: Efficacy of purified CtmC alone in-vitro, 96 well plate, OD 620 nm; format: cell-based; conditions: CtmC 10 ppm
Protocol: (§4) CtmC was dissolved in DMSO (Dimethylsulfoxid) to a final concentration of 1000 ppm to create a stock solution. A second dilutions of 1:10 was made in water+0.025% Tween 20. From this second dilution 10 μl are dispensed into a 96 well plate. To each well, 90 μl of medium (PDB—potato dextrose broth, plus 0.3% agar) with fungal spores are added and mixed, resulting in final CtmC concentrations of 10 ppm. All wells containing CtmC also contain DMSO (1%) and Tween 20 (0.0025%). In the following table 4 some of the species were tested using several distinct isolates (internal strain number indicated) to understand variability among different isolates of the same species sampled in different locations, producing different mycotoxins (genus Fusarium), or expressing various tolerances to fungicides of the SDHI (Succinate Dehydrogenase Inhibitor), SBI (Sterol Biosynthesis Inhibitors) and/or QoI (quinone outside inhibitors) classes (example: Zymoseptoria tritici). Different isolates had variable inoculum density and number of biological repicas, as indicated.

[4] = test system: Fusarium tricinctum K7454; assay: as above; format: cell-based; conditions: CtmC 10 ppm
Protocol: as §4

[5] = test system: Fusarium tricinctum K7452; assay: as above; format: cell-based; conditions: CtmC 10 ppm
Protocol: as §4

[6] = test system: Gibberella avenacea K6939; assay: as above; format: cell-based; conditions: CtmC 10 ppm
Protocol: as §4

[7] = test system: Colletotrichum lindemuthianum K5893; assay: as above; format: cell-based; conditions: CtmC 10 ppm
Protocol: as §4

[8] = test system: Zymoseptoria tritici K6318; assay: as above; format: cell-based; conditions: CtmC 10 ppm
Protocol: as §4

[9] = test system: Venturia inaequalis K6222; assay: as above; format: cell-based; conditions: CtmC 10 ppm
Protocol: as §4

[10] = test system: Zymoseptoria tritici K6105; assay: as above; format: cell-based; conditions: CtmC 10 ppm
Protocol: as §4

Gibberella zeae K6934 = format: cell-based; conditions: CtmC 10 ppm
Mycosphaerella arachidis [11] = assay: Greenhouse test, peanut (groundnut), preventative; format: in vivo; conditions: 1 day preventative, EC50 formulation
Protocol: Purified Cyclothiazomycin C (CtmC) was formulated as an EC50 formulation. The formulation was diluted in water at rates of 100 ppm and 50 ppm of CtmC. Plants were treated with 400 L/ha of the diluted product supplemented with an adjuvant to improve sticking and spreading, resulting in a treatment of 40 g/ha and 20 g/ha of CtmC, respectively.
Mycosphaerella arachidis peanut/preventative (Brown leaf spot on groundnut) 3-week old peanut plants cv. Georgia Green are sprayed in a spray chamber with the formulated test compound diluted in water. The test plants are inoculated by spraying them with a spore suspension on their lower leaf surface one day after application. After an incubation period of 4 days under a plastic hood at 23° C. and 100% rh, the inoculated test plants are kept at 23° C./20° C. (day/night) and 70% rh in a greenhouse. The percentage leaf area covered by disease is assessed when an appropriate level of disease appears on untreated check plants (12-14 days after application).

[12] = test system: a variety of fungal strains; conditions: statement of WO2015191789, cited from earlier work
Mycosphaerella arachidis [13] = assay: Efficacy of purified CtmC in-vitro, microtiter plate growth inhibition; format: cell-based; conditions: rate 10 ppm; approximately 5-6 days at 24° C.
Protocol: as §3
Mycosphaerella arachidis (Brown leaf spot of groundnut): Conidia of the fungus from cryogenic storage were directly mixed into nutrient broth (PDB potato dextrose broth). After placing a solution of the test compounds into a microtiter plate (96-well format) the nutrient broth containing the fungal spores was added. The test plates were incubated at 24° C. and the inhibition of growth was determined photometrically after approximately 5-6 days at 620 nm.

[14] = test system: Gibberella zeae (Fusarium graminearum); assay: microbe, parasite or virus in culture; format: cell-based; conditions: read-out: % Efficacy
[15] = test system: Fusarium langsethiae K5670; format: cell-based; conditions: CtmC 10 ppm
Microdochium nivale = assay: Efficacy of mixtures of streptimidone and CtmC, liquid culture in PDB, optical density 620 nm; format: cell-based; conditions: read-out: % Efficacy

Compound: C=C1NC(=O)CNC(=O)[C@H](CCCCN)NC(=O)[C@@]2(C)NC(=O)/C(=C/C)NC(=O)[C@H]3CSC(=N3)[C@@H](CC(N)=O)CC(=O)c3ccc(nc3[C@@H](C)NC(=O)[C@@H]3CCCN3C1=O)-c1nc(cs1)C1=N[C@H](CS1)C(=O)NC(=C)c1nc(cs1)-c1nc(cs1)C1=N[C@@H](CS1)C(=O)N[C@@H](C(=O)O)CS2 [CtmC, cyclothiazomycin C]
- EC50 (ppm) ([1]; Tween 20 0%): 1.098 ppm
- EC50 (ppm) ([1]; Tween 20 0.0025%): 0.889 ppm
- EC50 (ppm) ([1]; Tween 20 0.0050%): 0.7844 ppm
- EC50 (ppm) ([1]; Tween 20 0.0100%): 1.035 ppm
- EC50 (ppm) ([2]; Tween 20 0%): 1.422 ppm
- EC50 (ppm) ([2]; Tween 20 0.0025%): 1.053 ppm
- EC50 (ppm) ([2]; Tween 20 0.0050%): 0.8103 ppm
- EC50 (ppm) ([2]; Tween 20 0.0100%): 1.436 ppm
- control of fungal growth (%) (Botrytis cinerea): 90%
- efficacy (%) [3]: 95%
- optical density at 620 nm ([3]; blank 0.046, untreated 0.378): 0.062
- efficacy (%) [4]: 65%
- optical density at 620 nm ([4]; blank 0.050, untreated 0.463): 0.195
- efficacy (%) [5]: 68%
- optical density at 620 nm ([5]; blank 0.052, untreated 0.498): 0.197
- efficacy (%) [6]: 82%
- optical density at 620 nm ([6]; blank 0.055, untreated 0.675): 0.165
- efficacy (%) [7]: 45%
- optical density at 620 nm ([7]; blank 0.046, untreated 0.373): 0.225
- efficacy (%) [8]: 98%
- optical density at 620 nm ([8]; blank 0.054, untreated 0.253): 0.059
- efficacy (%) [9]: 86%
- optical density at 620 nm ([9]; blank 0.044, untreated 0.320): 0.082
- efficacy (%) [10]: 99%
- optical density at 620 nm ([10]; blank 0.044, untreated 0.354): 0.046
- efficacy (%) (Gibberella zeae K6934): 48%
- optical density at 620 nm (Gibberella zeae K6934; blank 0.052, untreated 0.641): 0.361
- efficacy 20 g/ha (%) (Mycosphaerella arachidis [11]; 20 g/ha): 56%
- efficacy 40 g/ha (%) (Mycosphaerella arachidis [11]; 40 g/ha): 65%
- growth inhibitory action toward a variety of fungal strains ([12]; listed as Cyclothiazomycin C): no fungal inhibitory action
- growth inhibitory action toward a variety of fungal strains ([12]; listed as cyclothiazomycin C): none was observed
- control of fungal growth (%) (Mycosphaerella arachidis [13]): 100%
- Emax at 20 ppm [14]: 37%
- efficacy (%) [15]: 94%
- optical density at 620 nm ([15]; blank 0.053, untreated 0.346): 0.072
- Emax at 0.0333 ppm (Microdochium nivale): 19%
- Emax at 0.1 ppm (Microdochium nivale): 42%
